In patent US20250304893A1, “PERFUSABLE 3D TUBULE-ON-CHIP MODEL DERIVED FROM KIDNEY ORGANOIDS WITH IMPROVED DRUG UPTAKE” (President and Fellows of Harvard College, priority 2022, published 2025):

Key:
PTEC-TERT1 tubules = assay: Nephrotoxicity testing: normalized LDH release in luminal perfusate of PTEC-TERT1-on-chip tubules (control chips); format: cell-based, human
Procedure: Before beginning these experiments, three important steps were carried out: (1) all reservoirs were supplied with fresh media, (2) all outlet tubing was cut to the same length, and (3) all chips were subjected to one-way rather than recirculating back to the media reservoir. After each chip within the MCDs was subjected to one-way flow (2 μL/min) for 4 h, a baseline sample of the perfusate was collected from the luminal outlet tubing for 3 h into a 1.6 mL Eppendorf tube. Next, cisplatin (50 μM) or aristolochic acid (25 μM) was delivered basolaterally on chip by manually pipetting each drug solution to the appropriate basal media reservoir. […]
LDH assays were performed according to the manufacturer's instructions (Promega, CytoTox Non-Radioactive Cytotoxicity Assay, G1780). […] 50 μL of stop solution was then added, all bubbles were removed using a syringe, and their absorbance was recorded at 490 nm using a plate reader.
(§1) Normalized LDH release was calculated using the following equation: […]
LDH48 was the recorded absorbance of the 48-h perfusate sample and LDHbaseline was the recorded absorbance of baseline perfusate sample before drug exposure. Normalized LDH release was calculated for each of the tubules individually and plotted into sample groups comparing OPTEC-on-chip and PTEC-TERT1-on-chip models subjected to each drug ±inhibitor. […]

OPTEC tubules [1] = conditions: 48 h
Procedure: Before beginning these experiments, three important steps were carried out: (1) all reservoirs were supplied with fresh media, (2) all outlet tubing was cut to the same length, and (3) all chips were subjected to one-way rather than recirculating back to the media reservoir. After each chip within the MCDs was subjected to one-way flow (2 μL/min) for 4 h, a baseline sample of the perfusate was collected from the luminal outlet tubing for 3 h into a 1.6 mL Eppendorf tube. Next, cisplatin (50 μM) or aristolochic acid (25 μM) was delivered basolaterally on chip by manually pipetting each drug solution to the appropriate basal media reservoir. Next, all tubing was reconnected to the peristaltic pump and allowed to flow at a flow rate of 2 μL/min. After 48 h, another sample of the perfusate was collected from the luminal outlet tubing for 3 h into a 1.6 mL Eppendorf tube. All collected luminal media samples were spun down at 5000 rcf for 5 min to remove cellular debris. Each supernatant was transferred to a fresh tube and stored at −20° C. to run the LDH assay. For samples pre-treated with inhibitors, cimetidine (1 mM) or probenecid (2 mM) was first added to the basal reservoir, delivered basolaterally, and allowed to diffuse through the gelatin-fibrin matrix during recirculating flow for 1 h.
LDH assays were performed according to the manufacturer's instructions (Promega, CytoTox Non-Radioactive Cytotoxicity Assay, G1780). The frozen media samples were thawed at room temperature and used after this first thaw cycle. Next, 50 μL of each media was transferred to a 96-well plate and incubated at 37° C. for 30 min with 50 μL of CytoTox 96 reagent. 50 μL of stop solution was then added, all bubbles were removed using a syringe, and their absorbance was recorded at 490 nm using a plate reader.
as §1
LDH48 was the recorded absorbance of the 48-h perfusate sample and LDHbaseline was the recorded absorbance of baseline perfusate sample before drug exposure. Normalized LDH release was calculated for each of the tubules individually and plotted into sample groups comparing OPTEC-on-chip and PTEC-TERT1-on-chip models subjected to each drug ±inhibitor.
To assess nephrotoxicity, luminal perfusate was collected and LDH analyses were performed. LDH is a cytosolic enzyme found in nearly all cell types, including PTECs, that is released upon cellular damage^29. […] Due to differences in their baseline LDH release among different tubules across the two cell types, a normalized LDH release (LDH release at 48 h relative to baseline release) was determined for each sample, i.e., OPTEC and PTEC-TERT1 tubules without drug, with drug, and with drug and corresponding inhibitors for OCT2 and OAT1/3 transporters, respectively.

OPTECs = assay: 2D OPTEC culture with media supplements to minimize epithelial to mesenchymal transition; format: cell-based, human
Procedure: Organoid-derived PTECs (OPTECs) were cultured in 24-well plates pretreated with 1:20 laminin-511 (Biolamina LN511) in DPBS with calcium and magnesium. For passages 0 and 1, the OPTECs were cultured in REGM media supplemented with 1% FBS. Upon reaching passage 2, the OPTECs were cultured using LPTEC media supplemented with 1% FBS and 10 μM SB431542 (ab120163). Each passage was performed when the cells reached ˜90% confluency by first washing the cells with DPBS without calcium and magnesium, treating with 0.05% trypsin/EDTA for 3-5 min (or until cells lifted off the plate), followed by quenching with culture medium, centrifuging at 240 ref for 4 min, resuspending in culture media, and seeding each laminin pre-treated well at a density of 70,000-100,000 cells/cm^2.
Next, the effects of two different media were tested: (1) modified DMEM F-12 medium described by previous work^14 (LPTEC) and (2) commercially available renal epithelial growth medium (REGM). […] To further promote cell attachment, growth, and proliferation, 1% FBS was added to the media. To minimize epithelial to mesenchymal transition (EMT), the effects of transforming growth factor (TGF-β), bone morphogenic protein 7 (BMP7) and TGF-β/activin/NODAL pathway (SB431542) inhibitors were explored (FIG. 6k-l)^26. […]

UB cells = assay: FITC-inulin retention in perfused epithelialized UB channels on chip (barrier function); format: cell-based, human; conditions: perfused epithelialized UB channels vs empty channels, after 1 hour
Procedure: To fabricate this chip, first the various chip components were assembled (FIG. 17A) and ECM was added to an inner reservoir around a pin and crosslinked. The pin was then removed forming an open channel that can be seeded with cells (FIG. 17B). This design allowed for easy access to the ECM and medium bathing the ECM. After seeding, cells formed confluent monolayers along channel walls within 3-7 days (FIG. 16C,D,E). Perfused epithelialized channels retained FITC-inulin after 1 hour relative to empty channels, indicating barrier function (FIG. 16F,G).

OPTEC tubules [2] = assay: Diffusional permeability measurement of FITC-inulin through tubules on chip; format: cell-based, human; conditions: 4.5 kDa FITC-inulin 100 μg/mL perfused through lumen, OPTEC tubules vs PTEC-TERT1 tubules (control)
Procedure: The barrier function of the 3D OPTECs- and PTEC-TERT1 s based models was assessed by measuring the diffusional permeability of 4.5 kDa inulin. This compound was selected because is neither up taken up nor secreted by PTECs in-vivo. FITC-labeled inulin (Sigma product F3272) was dissolved in prewarmed LPTEC media at a concentration of 100 μg/mL and perfused through the luminal channel at a rate of 20 μL/min for 3 min and 1.5 μL/min thereafter for 15 min. The diffusion of FITC-inulin was calculated by: […]
Where Pd is the diffusional permeability coefficient, I1 is the average intensity at the initial time point, I2 is the average intensity at time t, Ib is the background intensity taken before perfusion of FITC-inulin, and dis the diameter of the channel^13.

Compound: CN/C(=N/CCSCc1nc[nH]c1C)NC#N [cimetidine]
- effect of OCT2 inhibition on normalized LDH release (PTEC-TERT1 tubules; cimetidine 1 mM, same cisplatin dose (50 μM)): far less effect
- decrease of normalized LDH release upon OCT2 inhibitor (factor) (OPTEC tubules [1]; cimetidine 1 mM pre-treatment, 50 μM cisplatin, OPTEC tubules): > 2

Compound: CCCN(CCC)S(=O)(=O)c1ccc(C(=O)O)cc1 [probenecid]
- effect of OAT1/3 inhibition on normalized LDH release (PTEC-TERT1 tubules; probenecid 2 mM, same aristolochic acid dose (25 μM)): negligible effect
- normalized LDH release upon OAT1/3 inhibitor (OPTEC tubules [1]; probenecid 2 mM pre-treatment, 25 μM aristolochic acid, OPTEC tubules): substantially reduced

Compound: N.N.[Cl][Pt][Cl] [cisplatin]
- normalized LDH response compared to PTEC-TERT1 s (OPTEC tubules [1]; 50 μM cisplatin delivered basolaterally, OPTEC tubules on chip): significantly higher

Compound: NC(=O)c1ccc(-c2nc(-c3ccc4c(c3)OCO4)c(-c3ccccn3)[nH]2)cc1 [SB431542]
- cell morphology during prolonged cell culture (OPTECs; 10 μM, OPTECs 2D culture): cuboidal cell morphology
- EMT marker expression in 2D OPTEC monolayers (OPTECs; SB431542 as media supplement, 2D culture): down regulation of EMT markers

Compound: FITC-inulin
- retention of FITC-inulin in channel (barrier function) (UB cells): retained
- diffusional permeability (OPTEC tubules [2]): comparable to that observed for PTEC-TERT1 tubules

Compound: COc1cccc2c1cc([N+](=O)[O-])c1c(C(=O)O)cc3c(c12)OCO3 [aristolochic acid]
- LDH release compared to PTEC-TERT1 tubules (OPTEC tubules [1]; 25 μM aristolochic acid delivered basolaterally, OPTEC tubules on chip): significantly higher
